The values that follow come from US9115121B2, “1,3,5-triazine-2-amine derivatives, preparation thereof and diagnostic and therapeutic use thereof” (SANOFI, priority 2011, dated 2015).

Chain of human CB2 receptors (P34972 whole entry): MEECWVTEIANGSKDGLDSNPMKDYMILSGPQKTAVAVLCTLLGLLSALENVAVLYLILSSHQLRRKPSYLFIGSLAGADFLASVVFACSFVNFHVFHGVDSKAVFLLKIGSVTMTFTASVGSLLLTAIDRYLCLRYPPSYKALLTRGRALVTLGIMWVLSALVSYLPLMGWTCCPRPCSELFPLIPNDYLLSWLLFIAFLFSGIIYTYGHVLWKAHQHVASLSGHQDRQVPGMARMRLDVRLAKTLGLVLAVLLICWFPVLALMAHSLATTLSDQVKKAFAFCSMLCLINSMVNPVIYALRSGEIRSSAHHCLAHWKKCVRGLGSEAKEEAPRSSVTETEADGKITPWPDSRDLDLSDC

One assay addresses human CB2 receptors (Homo sapiens (Human), UniProt P34972). Nature of the assay: Affinity binding test on human CB2 receptors (tritiated ligand, membranes of recombinant cell lines). The conditions noted are these: concentration causing 50% inhibition of specific binding of the tritiated ligand, read-out: IC50 (nM) hCB2. The protocol:
Affinity binding tests were performed according to the experimental conditions described by M. Rinaldi-Carmona in J. Pharmacol. Exp. Therap. 1998, 287, 644-650, with membranes derived either from rodent tissues or from recombinant cell lines in which the human CB2 receptors were expressed (Munro et al., Nature 1993, 365, 61-65). The affinity of the compounds is expressed in the form of the IC50 (concentration causing 50% inhibition of specific binding of the tritiated ligand used in vitro).
On to `COc1nc(NCCc2ccc(F)cc2)nc(-c2ccc(C(C)(C)O)c(OC)c2)n1` [Compound 15], for which the IC50 (commonly the point on the concentration scale where inhibition reaches its midpoint) amounted to 17 nM.

Take `COc1nc(NCCc2ccc(F)cc2)nc(-c2ccc3[nH]ccc3c2)n1` [Compound 28]: the IC50 came out at 34 nM. As to `COc1nc(NCCc2ccc(F)cc2)nc(-c2ccc(SC)cc2)n1` [Compound 5], the IC50 is 14 nM.

As to `COc1nc(NCCc2ccc(F)cc2)nc(-c2cccc(OC(C)C)c2)n1` [Compound 2], the IC50 was found to be 39 nM. Turning to `COc1nc(NCCc2ccc(F)cc2)nc(-c2cnc3ccccc3c2)n1` [Compound 32], the IC50 was found to be 34 nM. Consider `COc1nc(NCCc2ccc(F)cc2)nc(-c2ccc(Cl)c(OCCCNS(C)(=O)=O)c2)n1` [Compound 66], for which the IC50 is 18 nM. Still for that read-out and setting: to `COc1nc(NCCc2ccc(F)cc2)nc(-c2cc3cc(Br)ccc3[nH]2)n1` [Compound 17] belongs 17 nM; to `COc1nc(NCCc2ccc(F)cc2)nc(-c2ccc3nonc3c2)n1` [Compound 31], 42 nM. Turning to `COc1nc(NCCc2ccc(F)cc2)nc(-c2ccc(F)c(C(C)(C)O)c2)n1` [Compound 14], the IC50 was found to be 8 nM.

Consider `COc1nc(NCCc2ccc(F)cc2)nc(-c2cccc3cnccc23)n1` [Compound 41], for which the IC50 stood at 20 nM. In the case of `COc1nc(NCCc2ccc(F)cc2)nc(-c2cccc3ncccc23)n1` [Compound 34], the IC50 stood at 47 nM. Take `COc1nc(NCCc2ccc(F)cc2)nc(-c2ccc3c(c2)OCCO3)n1` [Compound 8]: the IC50 was 14 nM.

Turning to `COc1nc(NCCc2ccc(F)cc2)nc(-c2ccc(F)c3cccnc23)n1` [Compound 37], the IC50 worked out at 1 nM. On the same count and under the same terms, to `COc1nc(NCCc2ccc(F)cc2)nc(-c2ccc(OC)c3nc(C)ccc23)n1` [Compound 39] belongs 38 nM. On the same count and under the same terms, the value for `COc1nc(NCCc2ccc(OC(F)F)cc2)nc(-c2cc3c(Cl)cccc3[nH]2)n1` [Compound 42] was 24 nM.

On to `COc1nc(NCCc2ccc(F)cc2)nc(-c2ccc(OC)c(C#N)c2)n1` [Compound 64], for which the IC50 worked out at 19 nM. Take `COc1nc(NCCc2ccc(OC(F)F)cc2)nc(-c2ccc(Cl)c(OCC(N)=O)c2)n1` [Compound 68]: the IC50 was 11 nM. For the molecule `COc1nc(NCCc2ccc(OC(F)F)cc2)nc(-c2ccc(F)c(C(C)(C)O)c2)n1` [Compound 45], the IC50 is 30 nM. Regarding `COc1nc(NCCc2ccc(F)cc2)nc(-c2cc3cc(C#N)ccc3[nH]2)n1` [Compound 25], the IC50 is 27 nM. On the same count and under the same terms, to `COc1nc(NCCc2ccc(F)cc2)nc(-c2cc3ccccc3o2)n1` [Compound 30] belongs 5 nM; to `COc1nc(NCCc2ccc(OC(F)(F)F)cc2)nc(-c2ccc(Cl)c(C(C)(C)O)c2)n1` [Compound 50], 12 nM; to `COc1nc(NCCc2ccc(F)cc2)nc(-c2ccc3cc[nH]c3c2)n1` [Compound 29], 14 nM. The same measure, in the same setting: the value for `COc1nc(NCCc2ccc(F)cc2)nc(-c2ccc(N(C)C)nc2)n1` [Compound 16] was 35 nM. The same measure, in the same setting: the value for `COc1nc(NCCc2ccc(F)cc2)nc(-c2ccnc3ccccc23)n1` [Compound 33] was 11 nM; that for `COc1nc(NCCc2ccc(F)cc2)nc(-c2ccc(OC)c(OC)c2)n1` [Compound 3] was 11 nM.

Regarding `COc1nc(NCCc2ccc(F)cc2)nc(-c2cccc3cccnc23)n1` [Compound 36], the IC50 worked out at 17 nM.

Consider `COc1nc(NCCc2ccc(F)cc2)nc(-c2cccc3[nH]ccc23)n1` [Compound 27], for which the IC50 worked out at 27 nM. Regarding `COc1nc(NCCc2ccc(F)cc2)nc(-c2cc3cc(Cl)ccc3o2)n1` [Compound 51], the IC50 is 23 nM. As for `COc1nc(NCCc2ccc(F)cc2)nc(-c2cc3cc(Cl)ccc3[nH]2)n1` [Compound 19], the IC50 came to 14 nM. Still for that read-out and setting: the value for `COc1nc(NCCc2ccc(F)cc2)nc(-c2ccc(C)c3ncccc23)n1` [Compound 38] was 38 nM. As for `COc1nc(NCCc2ccc(F)cc2)nc(-c2cc3ccc(SC)cc3[nH]2)n1` [Compound 26], the IC50 amounted to 37 nM. Same read-out and setting: to `COc1nc(NCCc2ccc(OC(F)F)cc2)nc(-c2cccc(S(=O)(=O)NC3CC3)c2)n1` [Compound 60] belongs 23 nM; to `COc1nc(NCCc2ccc(OC(F)F)cc2)nc(-c2ccc(C)c(S(=O)(=O)NC3CC3)c2)n1` [Compound 55], 44 nM. On to `COc1nc(NCCc2ccc(OC(F)(F)F)cc2)nc(-c2ccc(OC)c(C(C)(C)O)c2)n1` [Compound 54], for which the IC50 turned out to be 9 nM. Same read-out and setting: to `COc1nc(NCCc2ccc(F)cc2)nc(-c2cc3ccccc3s2)n1` [Compound 47] belongs 4 nM. Same read-out and setting: to `COc1nc(NCCc2ccc(F)cc2)nc(-c2ccc(Cl)c(S(=O)(=O)NC3CC3)c2)n1` [Compound 62] belongs 4 nM; to `COc1nc(NCCc2ccc(F)cc2)nc(-c2ccc(Cl)c(C(C)(C)O)c2)n1` [Compound 13], 0.4 nM. As to `COc1nc(NCCc2ccc(F)cc2)nc(-c2cc3ccc(F)cc3[nH]2)n1` [Compound 21], the IC50 amounted to 48 nM. As to `COc1nc(NCCc2ccc(OC(F)F)cc2)nc(-c2cccc(OC)c2C(C)(C)O)n1` [Compound 49], the IC50 is 4 nM. On the same count and under the same terms, to `COc1nc(NCCc2ccc(F)cc2)nc(-c2cccc(S(=O)(=O)NC3CC3)c2)n1` [Compound 11] belongs 2.7 nM; to `COc1nc(NCCc2ccc(OC(F)F)cc2)nc(-c2cccc(C(C)(C)O)c2)n1` [Compound 44], 18 nM; to `COc1nc(NCCc2ccc(F)cc2)nc(-c2cccc(C(C)=O)c2F)n1` [Compound 10], 10 nM. Consider `COC(=O)CCc1cccc(-c2nc(NCCc3ccc(F)cc3)nc(OC)n2)c1` [Compound 6], for which the IC50 was found to be 12 nM.

Regarding `COc1nc(NCCc2ccc(F)cc2)nc(-c2ccc3c(c2)OCO3)n1` [Compound 7], the IC50 worked out at 9 nM. Same read-out and setting: to `COc1nc(NCCc2ccc(OC(F)F)cc2)nc(-c2cc3cc(F)ccc3[nH]2)n1` [Compound 43] belongs 45 nM; to `COc1nc(NCCc2ccc(F)cc2)nc(-c2ccc(CO)c(S(=O)(=O)NC3CC3)c2)n1` [Compound 59], 25 nM. In the case of `COc1ccc2[nH]c(-c3nc(NCCc4ccc(F)cc4)nc(OC)n3)cc2c1` [Compound 24], the IC50 was 21 nM. `COc1nc(NCCc2ccc(F)cc2)nc(-c2cc3c(OC)cccc3[nH]2)n1` [Compound 23]: the IC50 turned out to be 33 nM.

Turning to `COc1nc(NCCc2ccc(OCF)cc2)nc(-c2ccc(OC)c(C(C)(C)O)c2)n1` [Compound 70], the IC50 was 9 nM. Turning to `COc1nc(NCCc2ccc(F)cc2)nc(-c2ccc3ncccc3c2)n1` [Compound 35], the IC50 came to 32 nM. Turning to `COc1nc(NCCc2ccc(F)cc2)nc(-c2cncc3ccccc23)n1` [Compound 40], the IC50 was 21 nM. Same read-out and setting: the value for `CCC(O)(CC)c1cccc(-c2nc(NCCc3ccc(F)cc3)nc(OC)n2)c1` [Compound 57] was 21 nM; that for `COc1ccc2oc(-c3nc(NCCc4ccc(F)cc4)nc(OC)n3)cc2c1` [Compound 48] was 12 nM.

For `COc1nc(NCCc2ccc(F)cc2)nc(-c2cc3cc(C)ccc3[nH]2)n1` [Compound 22], the IC50 worked out at 24 nM.

Staying with this assay, now noted: reported in text, read-out: IC50 on hCB2.
As to `CC(C)(O)c1cc(-c2nc(NCCc3ccc(F)cc3)nc(OCF)n2)ccc1Cl` [Compound 71, 2-{2-Chloro-5-[4-(fluoromethoxy)-6-{[2-(4-fluorophenyl)ethyl]amino}-1,3,5-triazin-2-yl]phenyl}propan-2-ol], the IC50 turned out to be 1.2 nM. On the same count and under the same terms, to `COc1ccc(-c2nc(NCCc3ccc(F)cc3)nc(OCF)n2)cc1C(C)(C)O` [Compound 72, 2-{5-[4-(Fluoromethoxy)-6-{[2-(4-fluorophenyl)ethyl]amino}-1,3,5-triazin-2-yl]-2-methoxyphenyl}propan-2-ol] belongs 1.2 nM.
